# According to US8039501B2, “Synephrine derivatives useful as anti-inflammatory agents” (Universiteit Gent, priority 2005, dated 2011):
# Where two headings read alike, the source gives them in different places.
# Experiments:
# MCF7 breast cancer cells = test: Human Cancer Pathway Finder GEarray hybridization, MCF7 cells; type: cell-based; conditions: 10^−5 M
# Procedure: mRNA of MCF7 breast cancer cells left untreated or treated with CpdA was analyzed for variation in gene expression by means of RNase protection analysis and nylon arrayfilter hybridization (SuperArray filters i.e. cancer pathway finder and stress and toxicity pathway array). From these experiments it can be derived that the synephrine analogues show a unique gene expression profile with respect to target genes involved in apoptosis, cell cycle, metastasis, angiogenesis, stress responses, and the like. At the same time, the synephrine analogue-induced gene expression prophile is distinct from the gene expression response observed with classical glucorticoids.
# For the total RNA extraction, 10^5 cell were homogenized in 1 ml of TRIzol Reagent (GIBCO BRL), incubated 5 minutes at room temperature; then added 200 μl chloroform, vortexed 15 seconds. Mix was incubated on ice for 5 minutes. Phase separation was done by centrifugation at 12000 rpm for 15 minutes at 4° C. […]
# Membranes were washed twice with 5 ml of pre-warmed wash solution 2×SSC, 1% SDS for 10 minutes at 68° C. with agitation at 30-40 rpm/minute. […] Visualization and quantitation of radioactive bands was carried out by a Phosphorlmager and scanned using a bioimaging analyzer (Personal Molecular Imager® FX Bio-Rad). Densitometry analysis of autoradiograms was performed using Quantity One (Bio-Rad). […]
# L363 cell line = test: MTT test, cell viability of L363 cells; type: cell-based, human; conditions: Homo sapiens, L-363; 10^−4 M; 10% FCS; FIG. 3B; read-out: Block of L363 cell viability
# Procedure: (§1) The MTT test is a standard assay addressing cell toxicity of a compound. It is based on the principle that after 3-4 hours of cell incubation with MTT (3-(4,5-dimethylthiazole-2-yl)-2,5-diphenyl tetrazolium bromide) so-called purple formazan crystals develop in living and early apoptotic cells. Dead cells don't produce formazan crystals.
# (§2) Different cell lines were tested. Unless indicated differently, A549 human lung epithelial cells (derived from lung carcinoma) and L929sA murine fibroblast cells were cultured in DMEM with 10% FCS, 100 U/ml penicillin and 100 μg/ml streptomycin. Unless indicated differently, the human multiple myeloma cell lines L363, U266 and MM1.S were cultured in RPMI 1640 with Glutamax-I, supplemented with 10% FCS, 100 U/ml penicillin and 100 μg/ml streptomycin. Cells were seeded at 5000 cells/well (for adherent A549 and L929sA cells) or at 10000 cells/well (for the multiple myeloma lines in suspension) in 96 well plates. Cells were incubated in the presence of the respective synephrine compounds or vehicle (EtOH; for control test) in a final volume of 0.2 ml for 24 or 48 hours at 37° C. Subsequently, 20 μl of MTT solution (5 mg/ml in phosphate-buffered saline) was added to each well. After 4 hours incubation at 37° C., 80 μl of the extraction buffer (10% SDS, 0.01 M HCl) was added. After overnight incubation at room temperature, the optical densities at 590 nm were measured. Results are illustrated in FIGS. 2 to 6 and are expressed as percentage of viable cells as compared to vehicle-treated controls.
# (§3) The MTT test was further extended to include alternative synephrine derivatives and a range of multiple myeloma cell lines for which the results are illustrated by FIGS. 3A, 3B and 4A. Human multiple myeloma cell lines L363, U266 and MM1.S were cultured in RPMI 1640 with Glutamax-I, supplemented with 10% FCS, 100 U/ml penicillin and 100 μg/ml streptomycin. Cells were seeded at 10000 cells/well in 96 well plates. Cells were incubated in the presence of test compounds or vehicle in a final volume of 0.2 ml for 24 or 48 hours at 37° C. The test compounds included in the test were the synephrine derivatives CpdA, Naphth, Benz and Isobut, and DEX as a comparative example. Subsequently, 20 μl of MTT solution (5 mg/ml in phosphate-buffered saline) was added to each well. After 4 hours incubation at 37° C., 80 μl of the extraction buffer (10% SDS, 0.01 M HCl) was added. After 48 hours incubation at room temperature, the optical densities at 590 nm were measured. Results are expressed as percentage of viable cells as compared to vehicle-treated controls.
# NF-κB = test: EMSA of NF-κB DNA binding in Namalwa B cells; type: cell-based, human; conditions: 10, 0.1, 0.01, 0.001 μM, TNF 2000 IU/ml, FIG. 8B
# [1] = system: multiple myeloma cells U266; test: MTT test, cell viability of U266 cells; type: cell-based, human
# Procedure: as §1, §2, §3
structure (smiles),measurement,setting,value
"CNCC(Cl)c1ccc(OC(C)=O)cc1.Cl (stereo not shown) [CpdA, 2-(4-acetoxyphenyl)-2-chloro-N-methyl-ethylammonium chloride]","Expression of cancer target genes TP53, TNFRSF12, MAP2K1, RAF, ITGA6, NCAM, PDGF, MMP9, MTA1, TIMP1",MCF7 breast cancer cells,represses
same,cytotoxicity at 100 µM,L363 cell line,50%
same,NF-κB binding to kB DNA sequence (EMSA),NF-κB,inhibits NF-κB binding to kB DNA sequence
same,Cell killing of U266 cells,"[1]; 10^−4M, serum-containing medium, FIG. 2B",60%
same,Cell killing of U266 cells,"[1]; 10^−5M, growth medium with 10% fetal calf serum, 48 hours, FIG. 2B",10%
same,Cell killing of U266 cells,"[1]; 10^−5M, serum-free growth medium, 24 hours, FIG. 2A",60%
same,Effect on cell viability of U266 cells,"[1]; 10^−6 to 10^−5 M, 10% FCS, FIG. 3A",15-20%
same,cytotoxicity at 100 µM,"[1]; Homo sapiens, U-266, 10^−4 M, 10% FCS, FIG. 3A, read-out: Block of U266 cell viability / cell killing",40%
same,cytotoxicity at 100 µM,"[1]; Homo sapiens, U-266, 10^−4M, serum-free medium, FIG. 2A, read-out: Cell killing / reduction of viability of U266 cells",80%
same,cytotoxicity at 1 µM,"[1]; Homo sapiens, U-266, 10^−6M, serum-free growth medium, 24 hours, FIG. 2A, read-out: Inhibition of viability of U266 cells",40%
